Measured values: paper PMC6478789, “A chemical toolbox for the study of bromodomains and epigenetic signaling” (Nature Communications, 2019)
Like-named read-outs stand apart in the source and are kept apart here.

How the values were obtained:
53BP1 = 53BP1 (Homo sapiens, UniProt Q12888); test: Temperature shift assay (non-BRD reader domains); format: binding; details: 10µM compound
Experimental: (§1) Temperature shift assays have been described by Fedorov et al.[46]. Recombinant protein domains (bromodomain or kinases) at a concentration of 2 μM in 10 mM HEPES, pH 7.5, and 500 mM NaCl were mixed with 10 μM of chemical probes. Temperature-dependent protein unfolding profiles were measured using a Real-Time PCR Mx3005p machine (Stratagene).
(§2) Wu et al., Supplementary figures and tables 14
(§3) Supplementary Table 3: Selectivity screening data (non-BRD reader domains):
(§4) Temperature shift assay data of BRD probes screened against a diver se panel of methyl-lysine
(§5) reader domains. Compounds were screened a concentration of 10 µM. Shown are temperature

SND1 = biological target: T1, SND1 (Homo sapiens, UniProt Q7KZF4); test: Temperature shift assay (non-BRD reader domains); format: binding; details: 10µM compound
T1 sequence (Q7KZF4 729-787 limits assumed): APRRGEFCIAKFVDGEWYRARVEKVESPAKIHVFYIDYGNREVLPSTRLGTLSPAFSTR
Experimental: as §1, §2, §3, §4, §5

WDR5 = WDR5 (Homo sapiens, UniProt P61964); test: Temperature shift assay (non-BRD reader domains); format: binding; details: 10µM compound
Experimental: as §1, §2, §3, §4, §5

TDRD3 = TDRD3 (Homo sapiens, UniProt Q9H7E2); test: Temperature shift assay (non-BRD reader domains); format: binding; details: 10µM compound
Experimental: as §1, §2, §3, §4, §5

RBBP1 = test: Temperature shift assay (non-BRD reader domains); format: binding; details: 10µM compound
Experimental: as §1, §2, §3, §4, §5

EED = EED (Homo sapiens, UniProt O75530); test: Temperature shift assay (non-BRD reader domains); format: binding; details: 10µM compound
Experimental: as §1, §2, §3, §4, §5

FXR1 = FXR1 (Homo sapiens, UniProt P51114); test: Temperature shift assay (non-BRD reader domains); format: binding; details: 10µM compound
Experimental: as §1, §2, §3, §4, §5

UHRF1 = biological target: T2, UHRF1 (Homo sapiens, UniProt Q96T88); test: Temperature shift assay (non-BRD reader domains); format: binding; details: 10µM compound
T2 sequence (Q96T88 126-285 limits assumed): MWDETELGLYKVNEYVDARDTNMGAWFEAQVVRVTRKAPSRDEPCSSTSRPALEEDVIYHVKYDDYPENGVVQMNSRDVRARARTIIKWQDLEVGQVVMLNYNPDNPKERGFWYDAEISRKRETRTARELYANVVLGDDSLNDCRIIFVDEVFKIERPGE
Experimental: as §1, §2, §3, §4, §5

BRPF3 = BRPF3 (Homo sapiens, UniProt Q9ULD4); test: Temperature shift assay (non-BRD reader domains); format: binding; details: 10µM compound
Experimental: as §1, §2, §3, §4, §5

BRD9 = biological target: T3, BRD9 (Homo sapiens, UniProt Q9H8M2); test: BROMOscan ligand-binding assay; details: BROMOscan Gene Symbol BRD9
T3 sequence (Q9H8M2 136-240 limits assumed): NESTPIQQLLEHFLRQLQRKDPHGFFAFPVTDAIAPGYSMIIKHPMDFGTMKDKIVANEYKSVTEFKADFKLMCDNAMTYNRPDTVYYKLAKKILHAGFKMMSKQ
From the text: (§6) BROMOscan is a binding assay based on the well-known KINOMEscan technology. This assay measures the binding of a DNA-tagged bromodomain to an immobilized BRD ligand. If an inhibitor is present, it will compete with the bromodomain binding to the immobilized ligand, resulting in reduction of a quantitative PCR (qPCR) signal in a dose-dependent manner.

BRD4(1) = BRD4(1) (Homo sapiens, UniProt O60885); test: BROMOscan ligand-binding assay
From the text: as §6

BRDT(2) = BRDT(2) (Homo sapiens, UniProt Q58F21); test: BROMOscan ligand-binding assay
From the text: as §6

BRD2(2) = BRD2(2) (Homo sapiens, UniProt P25440); test: BROMOscan ligand-binding assay
From the text: as §6

TAF1(2) = biological target: T4, TAF1(2) (Homo sapiens, UniProt P21675); test: BROMOscan ligand-binding assay
T4 sequence (P21675 1519-1628 limits assumed): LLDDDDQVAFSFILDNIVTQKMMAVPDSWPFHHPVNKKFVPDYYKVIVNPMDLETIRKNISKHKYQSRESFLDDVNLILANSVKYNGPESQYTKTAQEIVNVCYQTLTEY
From the text: as §6

TRIM24(PHD,BRD) = biological target: T5, TRIM24(PHD,BRD) (Homo sapiens, UniProt O15164); test: BROMOscan ligand-binding assay
T5 sequence (O15164 824-1006 limits assumed): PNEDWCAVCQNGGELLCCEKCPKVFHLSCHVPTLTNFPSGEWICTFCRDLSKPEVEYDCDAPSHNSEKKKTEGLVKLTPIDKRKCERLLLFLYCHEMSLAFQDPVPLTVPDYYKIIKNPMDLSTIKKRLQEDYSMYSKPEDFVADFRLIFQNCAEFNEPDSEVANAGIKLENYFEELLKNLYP
From the text: as §6

CREBBP = CREBBP (Homo sapiens, UniProt Q92793); test: BROMOscan ligand-binding assay
From the text: as §6

SMARCA2(iso.A) = SMARCA2(iso.A) (Homo sapiens, UniProt P51531); test: BROMOscan ligand-binding assay
From the text: as §6

BRD3(1,2) = BRD3(1,2) (Homo sapiens, UniProt Q15059); test: BROMOscan ligand-binding assay
From the text: as §6

BAZ1B = biological target: T6, BAZ1B (Homo sapiens, UniProt Q9UIG0); test: BROMOscan ligand-binding assay
T6 sequence (Q9UIG0 1339-1443 limits assumed): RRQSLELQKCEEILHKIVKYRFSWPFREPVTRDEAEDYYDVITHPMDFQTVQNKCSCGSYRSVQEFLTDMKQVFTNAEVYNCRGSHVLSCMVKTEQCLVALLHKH
From the text: as §6

SMARCA4 = SMARCA4 (Homo sapiens, UniProt P51532); test: BROMOscan ligand-binding assay
From the text: as §6

BRD4(1,2) = BRD4(1,2) (Homo sapiens, UniProt O60885); test: BROMOscan ligand-binding assay
From the text: as §6

[1] = KD (BROMOscan), sheet prints no unit (nM)

Sequence of BRD2(2) (P25440 344-453 limits assumed): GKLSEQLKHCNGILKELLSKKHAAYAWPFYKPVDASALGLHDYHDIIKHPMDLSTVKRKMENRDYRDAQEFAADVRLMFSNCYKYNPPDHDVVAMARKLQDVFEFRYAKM
Sequence of SMARCA4 (P51532 1453-1564 limits assumed): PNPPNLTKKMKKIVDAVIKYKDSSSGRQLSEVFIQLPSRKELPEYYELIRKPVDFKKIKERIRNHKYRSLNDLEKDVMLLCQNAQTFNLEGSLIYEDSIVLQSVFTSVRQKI
Sequence of TDRD3 (Q9H7E2 555-615 limits assumed, species assumed): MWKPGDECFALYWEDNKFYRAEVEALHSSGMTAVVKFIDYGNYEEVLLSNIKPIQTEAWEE
Sequence of 53BP1 (Q12888 1484-1603 limits assumed, species assumed): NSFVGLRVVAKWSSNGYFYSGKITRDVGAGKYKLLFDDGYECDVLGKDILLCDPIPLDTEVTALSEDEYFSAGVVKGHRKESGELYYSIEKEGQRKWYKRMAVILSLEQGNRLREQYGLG
Sequence of FXR1 (P51114 2-132 limits assumed, species assumed): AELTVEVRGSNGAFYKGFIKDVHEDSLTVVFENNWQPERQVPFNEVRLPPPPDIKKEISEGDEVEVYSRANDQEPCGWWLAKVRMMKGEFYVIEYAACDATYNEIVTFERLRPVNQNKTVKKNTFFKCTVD
Sequence of CREBBP (Q92793 1085-1192 limits assumed): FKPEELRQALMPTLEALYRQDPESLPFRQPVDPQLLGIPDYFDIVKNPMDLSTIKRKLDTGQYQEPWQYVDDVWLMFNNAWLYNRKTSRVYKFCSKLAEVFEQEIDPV
Sequence of EED (O75530 whole entry, species assumed, the tested form may be a part): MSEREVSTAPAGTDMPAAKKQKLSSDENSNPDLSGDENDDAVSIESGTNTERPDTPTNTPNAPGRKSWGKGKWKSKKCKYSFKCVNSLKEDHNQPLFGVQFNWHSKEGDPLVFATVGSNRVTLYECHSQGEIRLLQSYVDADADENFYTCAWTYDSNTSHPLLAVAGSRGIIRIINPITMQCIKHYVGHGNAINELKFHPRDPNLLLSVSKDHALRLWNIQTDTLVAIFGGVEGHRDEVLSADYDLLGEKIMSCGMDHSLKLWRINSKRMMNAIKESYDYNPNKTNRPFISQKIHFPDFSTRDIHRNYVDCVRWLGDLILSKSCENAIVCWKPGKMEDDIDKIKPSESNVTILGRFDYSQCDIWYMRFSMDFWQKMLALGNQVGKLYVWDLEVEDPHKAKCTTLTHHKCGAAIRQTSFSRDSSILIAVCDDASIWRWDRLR
Sequence of BRPF3 (Q9ULD4 1076-1159 limits assumed, species assumed): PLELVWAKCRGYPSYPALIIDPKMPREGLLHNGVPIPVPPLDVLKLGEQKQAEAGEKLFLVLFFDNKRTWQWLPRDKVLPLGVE
Sequence of SMARCA2(iso.A) (P51531 1378-1506 limits assumed): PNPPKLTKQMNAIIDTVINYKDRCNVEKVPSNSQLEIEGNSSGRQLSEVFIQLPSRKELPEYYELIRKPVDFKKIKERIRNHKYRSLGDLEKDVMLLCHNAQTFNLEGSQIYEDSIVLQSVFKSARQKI
Sequence of BRD3(1,2) (Q15059 24-416 limits assumed): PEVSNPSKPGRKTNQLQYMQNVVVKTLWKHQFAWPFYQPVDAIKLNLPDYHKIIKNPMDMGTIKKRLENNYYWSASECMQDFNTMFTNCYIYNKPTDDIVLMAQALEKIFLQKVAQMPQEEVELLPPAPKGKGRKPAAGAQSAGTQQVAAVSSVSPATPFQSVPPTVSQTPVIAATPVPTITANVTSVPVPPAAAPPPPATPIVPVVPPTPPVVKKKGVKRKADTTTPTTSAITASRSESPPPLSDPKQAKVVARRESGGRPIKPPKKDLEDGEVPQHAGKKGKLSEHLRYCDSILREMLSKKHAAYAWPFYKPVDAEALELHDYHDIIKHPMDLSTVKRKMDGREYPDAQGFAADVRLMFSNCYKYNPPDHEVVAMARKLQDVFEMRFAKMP

SMILES | Tm (C) 10µM, temperature shift (53BP1) | Tm (C) 10µM, temperature shift (SND1) | Tm (C) 10µM, temperature shift (WDR5) | Tm (C) 10µM, temperature shift (TDRD3) | Tm (C) 10µM, temperature shift (EED) | Tm (C) 10µM, temperature shift (FXR1) | Tm (C) 10µM, temperature shift (UHRF1) | Tm (C) 10µM, temperature shift (BRPF3) | Tm (C) 10µM, temperature shift (RBBP1) | also measured
Cc1noc(C)c1-c1ccc2c(c1)nc(CCc1ccccc1)n2CCN1CCOCC1 [CBP30-298] | – | – | – | – | – | – | – | – | – | Kd (BRD9): 12 µM; Kd (BRD4(1); BROMOscan Gene Symbol BRD4(1)): 0.52 µM; Kd (BRDT(2); BROMOscan Gene Symbol BRDT(2)): 6.8 µM; Kd (BRD2(2); BROMOscan Gene Symbol BRD2(2)): 1.8 µM; Kd (TAF1(2); BROMOscan Gene Symbol TAF1(2)): 5.8 µM; Kd (TRIM24(PHD,BRD); BROMOscan Gene Symbol TRIM24(PHD,Bromo.)): 17 µM; Kd (CREBBP; BROMOscan Gene Symbol CREBBP): 0.14 µM
CCCOc1ccn2c(C(C)=O)cc(-c3ccccc3S(C)(=O)=O)c2c1 [GSK2801] | – | – | – | – | – | – | – | – | – | Kd (BRD9; KD): 0.12 µM; Kd (BRD4(1)): 74 µM; Kd (SMARCA2(iso.A); [1]): > 30000 nM; Kd (SMARCA2(iso.A); KD, BROMOscan Gene Symbol SMARCA2(iso.A)): > 100000 nM; Kd (BRDT(2); KD, BROMOscan Gene Symbol BRDT(2)): 67 µM; Kd (BRD2(2)): 22 µM; Kd (TAF1(2)): 1.4 µM; Kd (BRD3(1,2); KD, BROMOscan Gene Symbol BRD3(1,2)): 17 µM; Kd (BAZ1B; [1]): > 30000 nM; Kd (BAZ1B; KD, BROMOscan Gene Symbol BAZ1B): > 100000 nM; Kd (TRIM24(PHD,BRD); KD, BROMOscan Gene Symbol TRIM24(PHD,Bromo.)): 33 µM; Kd (CREBBP; KD, BROMOscan Gene Symbol CREBBP): 21 µM; Kd (SMARCA4; [1]): > 30000 nM; Kd (SMARCA4; KD, BROMOscan Gene Symbol SMARCA4): > 100000 nM; Kd (BRD4(1,2)): 65 µM
CN1C[C@H](Nc2cnn(C)c(=O)c2Br)C[C@H](c2ccccc2)C1 [GSK4027] | -0.1 Kelvin | -1.0 Kelvin | 0.2 Kelvin | -0.6 Kelvin | -0.7 Kelvin | 0.3 Kelvin | -0.2 Kelvin | -0.3 Kelvin | -0.7 Kelvin | –
Cc1cc(=O)n(C)c2cc(N3C(=O)CC[C@H](NS(=O)(=O)CC(C)C)[C@H]3c3ccc(Cl)cc3)ccc12 [LP-99] | – | – | – | – | – | – | – | – | – | Kd (BRD4(1); BROMOscan, BRD4(1)): 46 µM; Kd (BRDT(2); BROMOscan, BRDT(2)): 33 µM; Kd (BRD2(2); BROMOscan, BRD2(2)): 9.2 µM; Kd (TAF1(2); BROMOscan, TAF1(2)): > 50 µM; Kd (BRD3(1,2); BROMOscan, BRD3(1,2)): 47 µM; Kd (TRIM24(PHD,BRD); BROMOscan, TRIM24(PHD,Bromo.)): > 50 µM; Kd (CREBBP; BROMOscan, CREBBP): > 50 µM; Kd (SMARCA4; BROMOscan, SMARCA4): > 50000 nM; Kd (BRD4(1,2); BROMOscan, BRD4(1,2)): 41 µM

The next lines start with results.

Tm (C) 10µM, temperature shift (53BP1) | Tm (C) 10µM, temperature shift (SND1) | Tm (C) 10µM, temperature shift (WDR5) | Tm (C) 10µM, temperature shift (TDRD3) | Tm (C) 10µM, temperature shift (EED) | Tm (C) 10µM, temperature shift (FXR1) | Tm (C) 10µM, temperature shift (UHRF1) | Tm (C) 10µM, temperature shift (BRPF3) | SMILES | Tm (C) 10µM, temperature shift (RBBP1) | also measured
-2.3 Kelvin | -1.0 Kelvin | -7.3 Kelvin | -5.3 Kelvin | -0.5 Kelvin | -1.2 Kelvin | -0.4 Kelvin | – | Cc1c(NC(=O)c2cc(C(N)=O)nc3cc(F)ccc23)c(C(F)(F)F)nn1Cc1ccc(C(C)(C)C)cc1 [BAY-588] | -0.1 Kelvin | –
-0.7 Kelvin | -1.6 Kelvin | 0.2 Kelvin | -1.8 Kelvin | – | -1.7 Kelvin | -0.3 Kelvin | -0.4 Kelvin | COc1cc(Cl)c(C(=O)N[C@@H](CN[C@H]2CC[C@@H](N)CC2)Cc2ccc(C#N)cc2)cc1-c1ccc(CN[C@H](C)c2ccc(C)cc2)o1 [BAY-850] | -1.0 Kelvin | –
0.0 Kelvin | -0.9 Kelvin | 0.4 Kelvin | -1.0 Kelvin | -0.7 Kelvin | 0.8 Kelvin | -0.2 Kelvin | -0.3 Kelvin | Cc1c(NC(=O)c2cc(C(N)=O)nc3cc(F)ccc23)c(C(F)(F)F)nn1Cc1ccc(C#N)cc1 [BAY-876] | -0.3 Kelvin | –
